Biological target: Induced myeloid leukemia cell differentiation protein Mcl-1 (Homo sapiens) (UniProt Q07820)
Assay: Mcl-1/Noxa binding inhibitor potency, dose response, biochemical, TR-FRET (AID 1417)
Conditions: Mcl-1/Noxa peptide interaction, cell-free TR-FRET (terbium/rhodamine), 2 h; measured here: absolute IC50

Sequence of Induced myeloid leukemia cell differentiation protein Mcl-1 (Homo sapiens) (Q07820 whole entry, looked up): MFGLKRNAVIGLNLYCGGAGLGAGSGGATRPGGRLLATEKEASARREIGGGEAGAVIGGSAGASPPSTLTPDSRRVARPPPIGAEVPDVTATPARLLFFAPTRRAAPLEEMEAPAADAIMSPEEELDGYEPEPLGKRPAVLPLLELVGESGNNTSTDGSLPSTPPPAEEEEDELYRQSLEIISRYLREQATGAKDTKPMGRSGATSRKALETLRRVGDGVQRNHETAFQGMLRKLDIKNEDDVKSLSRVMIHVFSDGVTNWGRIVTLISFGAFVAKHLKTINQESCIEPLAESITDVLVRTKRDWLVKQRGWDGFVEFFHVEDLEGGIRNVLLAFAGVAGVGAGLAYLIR

Row | SMILES | IC50 [µM]
1 | CCOC(=O)c1c(C)oc2c1c(CN1CCN(CCO)CC1)c(O)c1ccccc12 | < 0.4
2 | COC(=O)[C@@]1(Cc2ccccc2)[C@H]2c3cc(C(=O)N4CCCC4)n(CCSCCO)c3C[C@H]2CN1C(=O)c1ccccc1 | > 54
3 | N=c1c(C(=O)NCc2ccc3c(c2)OCO3)cc2c(=O)n3ccccc3nc2n1Cc1cccnc1 | 3.26
4 | CCS(=O)(=O)N1CCN(C(C)CCc2ccccc2)CC1 (stereo not drawn) | > 54
5 | CC1(c2ccccc2)CC(C)(C)N2C(=O)/C(=C3\SC(=S)NC3=O)c3cccc1c32 (stereo not drawn) | < 0.4
6 | Oc1cc2c(cc1O)C1c3ccc(O)c(O)c3OCC1(O)C2 (stereo not drawn) | < 0.4
7 | O=C(O)COc1ccccc1C(Nc1ccccn1)c1cc(Cl)c2cccnc2c1O (stereo not drawn) | < 0.4
8 | COc1cc(/C=C(\C#N)c2nc3ccc(C)cc3[nH]2)cc([N+](=O)[O-])c1O | 3.44
9 | O=[N+]([O-])c1ccc(-c2cc(-c3ccc(Cl)cc3)n[nH]2)cc1 | 5.61
10 | CC(C)C(C(=O)O)N1C(=O)/C(=C/C=C/c2ccco2)SC1=S (stereo not drawn) | < 0.4
11 | Oc1ccccc1C1Nc2cccc3cccc(c23)N1 | 6.64
12 | COc1ccc2c(=O)c3c(=O)n(-c4ccc(C)cc4)c(-c4ccccc4)nc3oc2c1 | > 54
13 | COc1ccc(Nc2cc(C)c3c(O)cccc3n2)cc1 | 7.12
14 | O=C1NC(=O)N(c2ccccc2)C(=O)/C1=C\c1ccc2c3c(cccc13)CC2 | 8.21
15 | N#Cc1cc(-c2ccccc2)nn1-c1ccccc1 | < 0.4
16 | CC(=O)C1=C(S(=O)(=O)c2ccc(C)cc2)CS(=O)(=O)C1 | < 0.4
17 | C/C(=N\Nc1ccc(C(=O)O)cc1)c1ccc2c(c1)Nc1ccccc1S2 | < 0.4
18 | Oc1c(Cl)cc(Cl)cc1/C=C/c1ccc2cccc(O)c2n1 | > 54
19 | C=CCc1cccc2cc(C(=O)Nc3ccc(S(=O)(=O)Nc4nnc(CC)s4)cc3)c(=O)oc12 | 1.54
20 | COc1ccccc1C1NC=C([N+](=O)[O-])C=C1[N+](=O)[O-] (stereo not drawn) | > 54
21 | Cc1ccc(-c2ccc(/C=C3/NC(=O)NC3=O)o2)cc1[N+](=O)[O-] | 6.44
22 | C=C(C)C(=O)Nc1cccc(C2=NOC3(C2)C[C@@H](C(N)=O)N(C(=O)c2ccc(Cl)cc2)C3)c1 (stereo partly drawn) | < 0.4

Row | SMILES | IC50 [µM]
23 | Cc1ccc(C(=O)Nc2ccc(N3CCCC3)cc2)cc1 | > 54
24 | Oc1[nH]c2ccccc2c1N=Nc1nc2ccccc2s1 | 5.01
25 | Cc1nn(Cc2ccc(F)cc2)c2sc(C(=O)Nc3ccc(N4CCOCC4)cc3N3CCOCC3)cc12 | > 54
26 | Nc1nc(N)c2cc(Sc3ccc4ccccc4c3)ccc2n1 | 4.06
27 | COc1cc(C(=O)Nc2ccc3c(c2)C(=O)c2ccccc2C3=O)cc(OC)c1OC | 3.97
28 | NC1=NC(=O)/C(=C/c2cn(CCC(=O)O)nc2-c2ccc(Cl)cc2)S1 | 5.91
29 | CN(C)c1ccc(Nc2c3c4c(cccc4n(C)c2=O)C(=O)c2ccccc2-3)cc1 | < 0.4
30 | Cc1nc(NC(=O)c2ccccc2)sc1-c1csc(Nc2ccc(C(=O)O)cc2)n1 | 3.6
31 | Cc1cc(=O)n2[nH]c(-c3ccsc3-n3c(C)ccc3C)cc2n1 | 2.89
32 | Cc1csc(NC(=O)c2cc(-c3ccco3)nc3ccccc23)n1 | 2.91
33 | Cc1ccc(NC(=O)c2cc(N3C(=O)C=CC3=O)ccc2Cl)cc1C | < 0.4
34 | Cc1cc(SCC(=O)N/N=C/c2ccc(O)c(O)c2O)c(C)cc1Br | < 0.4
35 | CN(C)c1ccc(C(CNC(=O)c2ccccc2Br)c2c[nH]c3ccccc23)cc1 (stereo not drawn) | > 54
36 | O=C(CSc1ccsc1[N+](=O)[O-])Nc1cccc(F)c1 | 2.61
37 | CCOC(=O)c1c(-c2ccc(C)cc2)csc1NC(=O)/C(C#N)=C/c1ccc(O)c(OC)c1 | < 0.4
38 | COc1cc(O)c(C(=O)O)c(-c2cc(O)c(O)cc2C)c1 | < 0.4
39 | O=C(N/N=C/c1ccc(-c2ccc(Cl)c(C(=O)O)c2)o1)c1cc2c(ccc3ccccc32)o1 | < 0.4
40 | CCc1nnc(NC(=O)c2cc(-c3ccco3)nc3ccccc23)s1 | 2.54
41 | O=C(CSc1nnc(COc2ccccc2Cl)o1)NC(=O)NCc1ccco1 | 8.6
42 | COCCN=c1scc(-c2ccco2)n1/N=C/c1ccc(O)c(O)c1O | < 0.4
43 | COc1ccc(C(=O)CSc2nnc(-c3ccco3)c(-c3ccco3)n2)cc1 | 7.95
44 | c1coc(-c2nc3ccccc3nc2-c2ccco2)c1 | 5.17

Row | SMILES | IC50 [µM]
45 | CCN1C(=O)C(C)S/C1=N\S(=O)(=O)c1ccc(F)cc1 (stereo not drawn) | > 54
46 | O=C1N/C(=N/Nc2ccccc2)S/C1=C\c1ccccc1 | > 54
47 | COc1cc(/C=C2/SC(=O)NC2=O)ccc1Oc1ccc([N+](=O)[O-])cc1[N+](=O)[O-] | 4.2
48 | CC1=NN(C(N)=S)C(=O)C1N=Nc1ccc(O)cc1 (stereo not drawn) | 11.2
49 | Cc1cccc(/C=C/C(=O)c2ccc(NC3=NCCCS3)cc2)c1 | 4.9
50 | Cc1ccc2[nH]c(O)c(N=Nc3nc4ccccc4s3)c2c1 | 2.48
51 | Oc1c(Cl)cc(Cl)c(Cl)c1Cc1c(O)c(Cl)cc(Cl)c1Cl | < 0.4
52 | COc1cccc(C(=O)Nc2cc(Cl)c(O)c(Cl)c2)c1 | > 54
53 | CCC(=O)NC1=C(Cl)C(=O)C(NC(=O)CC)=C(Cl)C1=O | < 0.4
54 | COc1cc(SC)ccc1C(=O)N1CCN(c2ccccc2)CC1 | > 54
55 | CCOC(=O)c1ccc(N=Nc2c(C)c(C#N)c(O)[nH]c2=O)cc1 | 2.84
56 | CCOC1=C/C(=C/c2c(N)n3nc(-c4ccccc4)sc3nc2=O)C=CC1=O | 2.43
57 | CN(C)c1ccc(NC(=O)c2cn(-c3ccccc3)nc2-c2cccs2)cc1 | > 54
58 | O=C(O)c1ccc(N/N=C/C2=C(N3CCOCC3)C(=C\c3ccccc3)/CC2)cc1 | 2.02
59 | C=C(C)C(=O)Nc1cccc(C2=NOC3(C2)C[C@@H](C(N)=O)N(C(=O)/C(C)=C/C)C3)c1 (stereo partly drawn) | > 54
60 | COc1ccc(N2CCC(CNC(=O)Nc3ccccc3)C2)cc1 (stereo not drawn) | < 0.4
61 | O=c1c(O)cccc2cc(O)c(O)c(O)c12 | < 0.4
62 | COc1ccc2nc(-c3ccco3)c(-c3ccco3)nc2c1 | 2.25
63 | O=C(c1ccc2nc(-c3ccco3)c(-c3ccco3)nc2c1)N1CCN(c2ncccn2)CC1 | 12.6
64 | O=C(Nc1cccc(S(=O)(=O)N2CCOCC2)c1)c1c2c(nc3ccccc13)CCC2 | 3.08
65 | CS(=O)(=O)C1=NSC2=NC(=O)/C(=C\c3cccn3-c3ccccc3Cl)C(=N)N21 | 5.59
66 | O=C(O)c1cccc(N/N=C/C2=C(Cl)c3cc(Cl)ccc3SC2)c1 | 4.33

Row | SMILES | IC50 [µM]
67 | O=C(CSc1nc2ccccc2s1)Nc1cc(S(=O)(=O)N2CCOCC2)ccc1O | 0.722
68 | Cc1c(O)cc2c(c1O)C(=O)CC(c1ccc(O)cc1)O2 (stereo not drawn) | 2.84
69 | COc1ccc(C(=O)Nc2ccc(N3CCCC3)cc2)cc1 | 2.65
70 | Cc1cc(C(=O)COC(=O)c2cc(O)c3ccccc3c2O)c(C)n1CC1CCCO1 (stereo not drawn) | < 0.4
71 | CC1CCc2c(sc(Nc3nc4c(F)cccc4s3)c2C(N)=O)C1 (stereo not drawn) | < 0.4
72 | C=C(C)C(=O)Nc1cccc(C2=NOC3(C2)C[C@H](C(N)=O)N(C(=O)/C=C/C)C3)c1 (stereo partly drawn) | 2.94
73 | O=C(Nc1ccc(N2CCOCC2)cc1)Nc1ccc2nc(-c3ccco3)c(-c3ccco3)nc2c1 | < 0.4
74 | O=C(Nc1ccc2c(c1)nc1n2CCN(C2CCCCC2)C1)c1ccco1 | 9.74
75 | Nc1c(C(=O)NCc2ccco2)sc2nc3c(cc12)C(=O)CCC3 | 2.34
76 | COc1cc(C2C(C#N)=C(N)OC3=C2C(=O)CCC3)c([N+](=O)[O-])cc1OC (stereo not drawn) | 5.16
77 | Cc1ccc2c(c1)NC(=O)c1cccnc1N2 | > 54
78 | O=C(NCCO)c1ccc2nc(-c3ccco3)c(-c3ccco3)nc2c1 | 0.527
79 | CSc1ccc(/C=N/Nc2cccc(C(=O)O)c2)cc1 | 0.893
80 | COc1ccc(/C=N/NC(=O)c2ccc(O)cc2O)cc1CSc1ccccn1 | 2.48
81 | COC(=O)c1ccc2nc(Nc3nc4c(F)cc(F)cc4s3)sc2c1 | < 0.4
82 | COc1cc(/C=N/NC(=O)C(Cc2c[nH]c3ccccc23)NC(=O)OCc2ccccc2)cc([N+](=O)[O-])c1O (stereo not drawn) | 4.82
83 | CC(=O)Nc1sc(N/N=C\c2ccc(O)cc2)nc1-c1cccs1 | 1.07
84 | COc1ccc(C(c2c(O)ccc3ccccc23)N2CCOCC2)c(OC)c1 (stereo not drawn) | < 0.4
85 | O=C(N/N=C/c1ccc(-c2ccc(S(=O)(=O)Nc3ncccn3)cc2)o1)c1cc2ccccc2cc1O | 1.43
86 | C=C(C)C(=O)Nc1cccc(C2=NOC3(C2)C[C@@H](C(N)=O)N(C(=O)C(=C)C)C3)c1 (stereo partly drawn) | > 54
87 | COc1ccc(Cl)c(N2CCN(CCCNC(=O)Nc3ccc(C)cc3)CC2)c1 | 6.02
88 | Cc1ccc(-c2cc(C(=O)N3CCN(c4ncccn4)CC3)c3cc(Br)ccc3n2)o1 | 3.78

Row | SMILES | IC50 [µM]
89 | CCN(c1ccc(NC(=O)COC(=O)CCc2nc3ccccc3n2-c2ccccc2)cc1)C(C)C | < 0.4
90 | CC(C(=O)NC1CCCC1)N(Cc1ccco1)C(=O)c1snc(C(=O)NC2CCCC2)c1N (stereo not drawn) | > 54
91 | CN(C)c1ccc(/C=N/NC(=O)c2cccc(C(=O)N/N=C/c3ccc(N(C)C)cc3)n2)cc1 | < 0.4
92 | CCc1c(C)[nH]c2ccc(OC)cc2c1=S | < 0.4
93 | Cc1ccc(-c2nn(-c3ccccc3)cc2/C=C2\SC(=S)N(CC(=O)O)C2=O)cc1 | 4.63
94 | CCSc1ncc(/C=N/Nc2ccc([N+](=O)[O-])cc2)n1C | 2.12
95 | O=C1C(=Cc2cccn2-c2ccccc2)C(=O)c2ccccc21 | 5.19
96 | COc1ccc(OCC(=O)Nc2nnc(-c3ccco3)s2)cc1 | 3.81
97 | NC(=O)c1ccsc1NC(=O)COC(=O)/C=C/c1ccc([N+](=O)[O-])cc1 | 2.88
98 | COCCN(CCOC)S(=O)(=O)c1ccc(C(=O)Nc2c(C)n(C)n(-c3ccccc3)c2=O)cc1 | > 54
99 | COc1cc(/C=C/c2nc3ccccc3c(=O)n2-c2cccc(O)c2)ccc1O | 10.5
100 | N#CC1=C(N)N(c2ccc(F)cc2)C2=C(C1c1ccc(O)cc1)S(=O)(=O)CC2 (stereo not drawn) | 3.4
101 | Oc1c(/C=N/c2ccccn2)sc2ccccc12 | < 0.4
102 | O=C1NN(c2ccc(F)c(Cl)c2)C(=O)/C1=C\c1cccc(OC(=O)c2cccs2)c1 | 6.86
103 | O=C(/C=C\c1ccco1)c1ccc(NC(=O)c2ccco2)cc1 | 3.3
104 | CNCc1ccccc1Sc1cc(O)ccc1O | 4.17
105 | Cc1ccc(/C=C/C(=O)NCc2ccccn2)o1 | 4.93
106 | COc1cc(/C=C(/NC(C)=O)C(=O)O)cc(Cl)c1OCc1ccc(Br)cc1 | > 54
107 | Cc1sc(NC(=O)c2sc3nc4c(C)cccc4cc3c2N)c(C#N)c1C | < 0.4
108 | O=C(CSc1ccsc1[N+](=O)[O-])N1CCN(c2ccc(Cl)cc2)CC1 | 5.22
